# Laboratory results: patent US6558694B2, “Zinc chloride unit dose packaging, applicator, and method of use in treating cancer and other skin diseases” (priority 1999, dated 2003)
# Legend:
# [1] = Mixing compatibility of additives with zinc chloride fixative paste; assay type: physicochemical; conditions: for mixing with the zinc chloride fixative paste: additive in low concentration
# Protocol: Podophyllin is a natural plant extract from the dried roots of either Podophyllum peltatum or P. emodi. It is an antimitotic agent used for many years in the treatment of human warts. (Fitzpatrick T B, et al. Dermatology in General Medicine, McGraw-Hill 1999, p. 2724.) Podophyllin is added at a 0.01% concentration, although a wide range of concentrations may be acceptable from 0.001% to 90% or greater, depending on the zinc chloride formulation employed.
# [2] = inadvertent extravasation; far greater concentration and dosage than in the paste; tenderness, erythema, skin discoloration, swelling; cited from earlier work
# [3] = test system: HIV; conditions: cited from earlier work
Compound,mixing with the zinc chloride fixative paste [1],paste consistency and viscosity after addition ([1]; paclitaxel in low concentration),local skin reactions [2],inactivation of HIV [3]
NC(N)=O [urea],completely compatible and mix fully,–,–,–
CC(=O)O[C@H]1C(=O)[C@@]2(C)[C@H]([C@H](OC(=O)c3ccccc3)[C@]3(O)C[C@H](OC(=O)[C@H](O)[C@@H](NC(=O)c4ccccc4)c4ccccc4)C(C)=C1C3(C)C)[C@]1(OC(C)=O)CO[C@@H]1C[C@@H]2O [paclitaxel],mixes completely and fully,remains unchanged,mild,–
O=c1[nH]cc(F)c(=O)[nH]1 [fluorouracil],completely compatible and mix fully,–,–,–
[Cl-].[Cl-].[Zn+2] [zinc chloride],–,–,–,inactivated
